system: Glioma; conditions: Rattus norvegicus
Description: Compound's ability to selectively deliver the requisite amounts of boron to tumors (cellular uptake of boron by the rat F98 Glioma cells at 16h was determined.)

Substance | Cellular uptake of boron at 16h (ug of B (g of cells)-1)
4-(1,2,3,4,5,6,7,8,9,10decabora-Cyclododec-11-en-11-ylmethoxy)-6-hydroxymethyl-tetrahydro-pyran-2,3,5-triol | 65.2
1-[4-(1,2,3,4,5,6,7,8,9,10decabora-Cyclododec-11-en-11-ylmethoxy)-3-hydroxy-5-hydroxymethyl-tetrahydro-furan-2-yl]-1H-pyrimidine-2,4-dione | 96.2
1-[5-(1,2,3,4,5,6,7,8,9,10decabora-Cyclododec-11-en-11-ylmethoxymethyl)-3,4-dihydroxy-tetrahydro-furan-2-yl]-1H-pyrimidine-2,4-dione | 83.8
1-[4-Hydroxy-5-hydroxymethyl-3-(1,2,3,4,5,6,7,8,9nonabora-cycloundec-10-en-10-ylmethoxy)-tetrahydro-furan-2-yl]-1H-pyrimidine-2,4-dione | 1.5
1-[3-(1,2,3,4,5,6,7,8,9,10decabora-Cyclododec-11-en-11-ylmethoxy)-4-hydroxy-5-hydroxymethyl-tetrahydro-furan-2-yl]-1H-pyrimidine-2,4-dione | 104

system: Glioma; conditions: Rattus norvegicus; remark: another data set of the same source
Description: Compound's ability to selectively deliver the requisite amounts of boron to tumors(amount of boron present in media in rat F98 Glioma cells at 0h after incubation with the compound.)

Substance | Boron in media at 0h
4-(1,2,3,4,5,6,7,8,9,10decabora-Cyclododec-11-en-11-ylmethoxy)-6-hydroxymethyl-tetrahydro-pyran-2,3,5-triol | 6.75 µg of B/ml
1-[4-(1,2,3,4,5,6,7,8,9,10decabora-Cyclododec-11-en-11-ylmethoxy)-3-hydroxy-5-hydroxymethyl-tetrahydro-furan-2-yl]-1H-pyrimidine-2,4-dione | 6.75 µg of B/ml
1-[5-(1,2,3,4,5,6,7,8,9,10decabora-Cyclododec-11-en-11-ylmethoxymethyl)-3,4-dihydroxy-tetrahydro-furan-2-yl]-1H-pyrimidine-2,4-dione | 6.75 µg of B/ml
1-[4-Hydroxy-5-hydroxymethyl-3-(1,2,3,4,5,6,7,8,9nonabora-cycloundec-10-en-10-ylmethoxy)-tetrahydro-furan-2-yl]-1H-pyrimidine-2,4-dione | 6.75 µg of B/ml
1-[3-(1,2,3,4,5,6,7,8,9,10decabora-Cyclododec-11-en-11-ylmethoxy)-4-hydroxy-5-hydroxymethyl-tetrahydro-furan-2-yl]-1H-pyrimidine-2,4-dione | 6.75 µg of B/ml

Source: ChEMBL document CHEMBL1126184, “Synthesis and in vitro evaluation of boronated uridine and glucose derivatives for boron neutron capture therapy” (1992)
